Measurements published in patent US8772237B2, “Compositions and methods for counteracting effects of reactive oxygen species and free radicals” (Ischemix, Inc., priority 1999, dated 2014).
Ends that are not written are not given here.

How the values were obtained:
[1] = tested on: catalase (CAT) mRNA; assay: RT-PCR upregulation of catalase (CAT) mRNA in primary rat cortical cultures; type: cell-based; conditions: 100 ng/ml
From the text: Peptide compounds of the invention may also upregulate mRNA for catalase (CAT). Experiments using the RT-PCR methods to detect upregulation of CAT mRNA in primary rat cortical brain cultures treated with various representative peptide compounds, i.e., CMX-9236, CMX-9963, and CMX-9967. The catalase probe duplex consisted of a sense primer having the sequence […] (SEQ ID NO:31) and antisense primer having the sequence […] (SEQ ID NO:32) flanking a 95 bp region of the CAT DNA.
Primary rat brain cortical cell cultures were incubated with 100 ng/ml of the peptide compound CMX-9236 for 0, 0.5, 1, 2, 3, 6, 12, 24, and 48 hours. […] The upregulation of CAT mRNA was maximal at 3 hours after the addition of the peptide compound, and it decreased back to control levels at 48 hours. GAPDH was the internal standard in these experiments. […] A 13-fold increase in CAT mRNA levels was observed (over control) of CAT mRNA occurred when primary rat brain cortical cultures were incubated with 100 ng/ml of CMX-9236 for 3 hours.

[2] = tested on: middle cerebral artery (MCA) temporary occlusion stroke model; assay: Temporary MCA occlusion stroke model; type: in vivo, Sprague-Dawley rats
Protocol: (§1) The in vivo neuroprotective effects of CMX-9236 were investigated in both temporary and permanent occlusion stroke models in Sprague-Dawley rats using an intraluminal suture of the middle cerebral artery (MCA) occlusion method (Zea Longa et al., Stroke, 20: 84 (1989)). Briefly, a 4-0 silicone-coated suture was inserted through the right common carotid artery to block the MCA orifice. In the temporary model, CMX-9236 (6.2 mg/kg/hr) or vehicle was administered via the femoral vein at 30 minutes after the start of a 2-hour occlusion for a 4-hour continuous infusion; the rats were then reperfused by withdrawing the suture at […] after the MCA occlusion. All experiments were performed in a blinded and randomized manner, and rectal temperature was maintained at 37° C. The animals were sacrificed, and their brains were removed, sectioned into six 2-mm-thick coronal slices and stained with 2,3,5-triphenyltetrazolium chloride solution (Bederson et al., Stroke, 17:1304 (1986)) to visualize the extent of brain damage for the calculation of the corrected hemispheric infarct volumes (Nagasawa and Kogure, Stroke, 20:1037 (1989); Li et al., J. Cereb. Blood Flow Metab., 17:1132 (1997)). […] This represents a significant reduction of infarct size (35±5%, p=0.01, student t-test) for the CMX-9236-treated group in the temporary occlusion model. There was also a 58+11% improvement in the neurological scoring (Minematsu et al., Neurology, 42:235 (1992)) for the peptide-treated group versus controls at the end of 24 hours.

[3] = tested on: middle cerebral artery (MCA) permanent occlusion stroke model; assay: Permanent MCA 24-hour occlusion stroke model; type: in vivo, Sprague-Dawley rats
Protocol: as §1
In the permanent occlusion stroke model, the blood flow to the MCA territory was blocked for the total 24-hour period. A continuous i.v. infusion (0.5 ml/hr) of the CMX-9236 peptide (2.04 mg/kg/hr) or vehicle was initiated at 30 minutes after occlusion for 6 hours, followed by a bolus i.v. infusion of CMX-9236 (4.0 mg/kg in 0.5 ml delivered over 10 minutes) or vehicle at 12 hours after occlusion. The corrected infarct volumes were 127.5±18 mm^3 versus 216±18 mm^3 for drug-treated animals and controls, respectively. This represents a significant decrease (41±5%, p=0.003, student t-test) in infarct size for the drug-treated group as compared to the vehicle-treated control group (n=10 per group) in the permanent model, indicating a substantial rescue of brain tissue. These findings indicate that CMX-9236 has neuroprotective properties post-trauma in vivo, reducing the brain damage generated by cerebral ischemia.

[4] = tested on: catalase (CAT) protein; assay: Western immunoblot of CAT protein in rat primary cortical cultures; type: cell-based; conditions: Dose 67 pmol/ml, 5 hours at 37° C.
Protocol: Tissue culture experiments were carried out using primary cultures of rat brain cortical cells as previously described above in Example 2. Primary cultures from embryonic rat brain isolated at E-21 (21 day embryos) and incubated for five hours with various doses: 1, 10, 100 ng/ml of CMX-99672. Cytoplasmic proteins were isolated and analyzed for upregulation of SOD and CAT by Western immunoblots as described above. […] The Western blot was scanned to quantify the fold-increase in SOD production in cell cultures treated with the CMX-99672 peptide compound.
Representative peptide compounds were tested at various doses and compared for their ability to upregulate expression of genes for SOD and/or CAT in rat primary cortical cultures basically as described above. Cultures were incubated with a peptide compound for 5 hours at 37° C. Cytoplasmic protein fractions were prepared as described above. Cytoplasmic proteins were separated by gel electrophoresis and analyzed by Western immunoblots using antisera to SOD and CAT, respectively (Rockland, Inc., Gilbertsville, Pa.).

[5] = tested on: middle cerebral artery (MCA) permanent occlusion stroke model; assay: Permanent MCA 24-hour occlusion stroke model; type: in vivo, Sprague-Dawley rats; conditions: Dose 0.05 mg/hr

time at which CAT mRNA decreased back to control levels [1]: 48 h | time of maximal upregulation of CAT mRNA after addition [1]: 3 h | increase in CAT mRNA levels over control ([1]; 3 hours): 13 fold
Sequence: KKDGDGDFAIDAPE [CMX-9236, uncapped peptide]
corrected infarct volume (mean±S.E.) ([2]; 6.2 mg/kg/hr i.v., 4-hour infusion from 30 min after start of occlusion, n=10): 117.3±17 mm^3 | reduction of infarct size vs vehicle ([2]; 6.2 mg/kg/hr, p=0.01): 35±5% | improvement in neurological scoring vs controls ([2]; at the end of 24 hours): 58+11% | corrected infarct volume ([3]; 2.04 mg/kg/hr i.v. for 6 hours from 30 min, plus 4.0 mg/kg bolus at 12 hours, n=10): 127.5±18 mm^3 | decrease in infarct size vs vehicle ([3]; 2.04 mg/kg/hr infusion plus 4.0 mg/kg bolus, p=0.003): 41±5% | CAT [4]: 652 % Control | Percent Neurological Rescue [5]: 35 ± 8% | Percent Rescue (percent decrease in infarct size vs vehicle controls) [5]: 23 ± 7%
